Assays:
HP1βT51P levels = assay: anti-HP1βT51P detection in cell extracts; format: cell-based
EGFP-HP1β = assay: FRAP dynamics of EGFP-HP1β in living cells; format: cell-based, mouse; details: preexposure to 75 μM TBB (FIG. 20)
Protocol: MEFs were seeded in 2-well Lab-Tek chambers (Nunc) after transfection with the EGFP-HP1β construct. Before imaging, growth medium was replaced with phenol-red free L15 imaging medium. Live cell imaging and photobleaching experiments were performed using a 40× 1.2 NA water immersion lens on a Zeiss LSM 510 Meta confocal microscope (using a heating chamber to maintain the cells at […]) with the 488 nm line of an Argon laser operating at 6.1 A.
FRAP analysis was performed by a method previously established in our lab 27. For low-bleach FRAP (see FIG. S1), selected regions of HC and EC were simultaneously bleached in a diffraction-limited spot with a pulse of 2 iterations at 100% of the […] Ar laser. Post-bleach images were acquired at a lower frequency of an image every 400 msec. Image bleach was corrected separately for EC and HC regions using a nearby unbleached cell. For high-bleach FRAP experiments, photobleaching was with 35 iterations at the same laser output, and images were collected every 290 msec. The normalized curves were plotted in GraphPad Prism, and recovery curves were fitted to a single order exponential equation Y=Ymax*(1−exp(−K*X)) to yield a recovery constant K; shown to be different among groups by the sum of squares f-test at p<0.05.

γH2AX = γH2AX foci formation / staining in MEFs after IR; format: cell-based, mouse
Protocol: Cell staining and immunofluorescence analyses were carried out as described previously^2. Briefly, transfected and untransfected cells were grown on coverslips and subjected to different treatments as indicated in the text prior to fixation. Cells were fixed using 4% formaldehyde for 10-15 min, followed by solubilisation and blocking with 3% BSA in 1×PBS, 0.05% Tween-20, 0.05% Triton. Imaging was performed on a Zeiss LSM510 Meta confocal microscope, using a 40× objective with fixed optical slice, laser power and detector/amplifier settings for all samples across each individual experiment to allow comparison. Quantitative analysis for HP1βT51P and γH2AX staining was performed using mean per-nucleus intensity to avoid any discrepancy in the definition or counting of foci. This was performed on identically stained and imaged samples by estimation of raw pixel intensity values for a defined number of cells, specified for each experiment, through the Zeiss LSM software, and comparison of the different groups by one-way ANOVA and Dunnet's post test. […] The plates were imaged and analyzed using a Cellomics high content screening microscope, using a 40× non-immersion objective. […] 500 cells were analysed per well, and standard errors calculated from an average of the means of 8 wells.

SMILES | HP1βT51P levels detected by anti-HP1βT51P in cell extracts (HP1βT51P levels; TBB at 75 μM for 6 hrs, with and without etoposide) | changes in FRAP dynamics of EGFP-HP1β triggered by DNA damage (EGFP-HP1β) | γH2AX foci formation (γH2AX; MEFs pre-exposed to 75 μM TBB, 5 min after 3 Gy IR) | pixel intensity of γH2AX staining after damage (γH2AX; TBB preexposure, n=20 per sample, p<0.01) | HP1βT51P species detected by anti-HP1βT51P in cell extracts (HP1βT51P levels; etoposide treatment)
Brc1c(Br)c(Br)c2[nH]cnc2c1Br [TBB, 4,5,6,7-tetrabromo-benzimidazole] | diminishes both the background detection and etoposide-induced enhancement of HP1βT51P levels | suppresses in living cells the changes in FRAP dynamics | suppresses γH2AX foci formation | reduced in a dose-dependent manner | –
COc1cc([C@@H]2c3cc4c(cc3[C@@H](O[C@@H]3O[C@@H]5CO[C@@H](C)O[C@H]5[C@H](O)[C@H]3O)[C@H]3COC(=O)[C@H]23)OCO4)cc(OC)c1O [etoposide] | – | – | – | – | enhanced in a dose-dependent manner

— patent US8021851B2, “Thr51 phosphorylated HP 1β protein for the assessment of DNA damage” (Cambridge Enterprise Limited, priority 2009, dated 2011)
